This is an account of results in PubChem BioAssay AID179 (DTP/NCI, 2004).

Active and inactive are the calls of the source.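 Rule for the calls: active = compounds giving half or more protection of infected cells from virus-caused growth loss, again on retest; inactive = the rest.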

The term EC50 denotes the concentration needed to bring the measured effect to its halfway point. For orientation: IC50 means the concentration that gives 50% inhibition. Read a high IC50 as weaker potency in that assay.

In this assay the test system is CEM cells HIV-1 protection, formazan growth assay. Nature of the assay: NCI AIDS Antiviral Assay. To be noted: for IC50: measured here: growth of uninfected CEM cells. In a few lines:
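Soluble formazan readout of cell growth; CEM cells ± HIV-1; 5 drug concs. ≥50% protection → retest; ≥50% again = moderately active; reproducible 100% = confirmed active.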

In the case of `CC(=O)Nc1c2sscc-2n(C)c1=O`, the EC50 was greater than 16.6 µM and the IC50 came to 0.891 µM.
In the case of `[N-]=[N+]=Nc1ccc(SSCCC(=O)ON2C(=O)CCC2=O)cc1`, the EC50 is greater than 200 µM and the IC50 is 7.59 µM.
Consider `O=C1c2ccccc2-n2c1nc1ccccc1c2=O`, for which the EC50 was greater than 200 µM and the IC50 is 52.5 µM.
In the case of `O=C(Nc1cccc2c1C(=O)c1c(NC(=O)c3ccccc3)ccc(Nc3cccc4c3C(=O)c3ccccc3C4=O)c1C2=O)c1ccccc1`, the EC50 was greater than 200 µM and the concentration for half-maximal inhibition (IC50) came out at 120 µM.
With `NC(=O)CC[C@@H]1NC[C@H](C(O)C(O)C(O)CO)OC1=O` (stereo not given in full), the EC50 is greater than 851 µM and the IC50 was greater than 851 µM.
With `COc1ccc(-n2c(N)c(C#N)[nH]c2=O)cc1`, the EC50 was greater than 200 µM and the IC50 is greater than 200 µM.
For `Cc1ccc([N+](=O)[O-])c2c(NCCC[N+](C)(C)[O-])c3ccccc3nc12`, the EC50 is greater than 2 µM and the IC50 amounted to 0.316 µM.
For the molecule `N/N=C(N)/C(N)=N/N`, the outcome was inactive.
For `CC1=C(N(C)C)C(=O)c2nc3n(c2C1=O)CCC3OC(N)=O` (stereo not given), the EC50 is greater than 200 µM and the IC50 was found to be 11.2 µM.
For the molecule `O=C1C=C(O)C(=Cc2c(O)cc(O)cc2O)C(O)=C1`, the result was inactive.
As to `CC(=O)OCCn1cnc2nc(Nc3ccccc3)nc(Cl)c21`, the EC50 was greater than 200 µM and the IC50 was found to be 70.8 µM.
On to `OC1CCC2OOC1O2` (stereo not given), for which the outcome was inactive.
As for `Cc1ccccc1C(=O)c1ccccc1C(=O)O`, the EC50 was 200 µM and the IC50 amounted to 617 µM.
With `Clc1cc2ncn(C3CCCO3)c2cc1Cl` (stereo not given), the EC50 was greater than 200 µM and the IC50 was determined as 61.7 µM.
`CC1=CC(C)C(=O)N(C)C(C)=C1` (stereo not given): the EC50 is greater than 1510 µM and the IC50 turned out to be 457 µM.
For `Cc1ccc(/C=C2\N=C(N3CCCC(CO)C3)NC2=O)cc1` (stereo not given), the EC50 is greater than 200 µM and the IC50 is greater than 200 µM.
Turning to `CN(C)CCSC(=Nc1ccccc1)n1cccc1`, the EC50 is greater than 26.3 µM and the IC50 was greater than 26.3 µM.
For the molecule `Cc1ccc(SC23C=CC(CC24CCOC4=O)OC3=O)cc1` (stereo not given), the EC50 is greater than 200 µM and the IC50 is greater than 200 µM.
In the case of `C/C=C/C=Nc1c(C#N)c2n(c1C(=O)Nc1ccc(Cl)cc1)CCC2`, the EC50 was greater than 50.1 µM and the IC50 came to 23.4 µM.
With `FC(F)(F)c1cccc(N(c2nc(Cl)nc(Cl)n2)c2nc(Cl)nc(Cl)n2)c1`, the EC50 is greater than 200 µM and the IC50 was greater than 200 µM.
`Cc1ccc(C(=O)OCC(C)C)cc1N=NN(C)C`: the EC50 was greater than 27.5 µM and the IC50 was greater than 27.5 µM.
Consider `CC1(C)CCCCCC(C)(CCCO)C1=O` (stereo not given), for which the EC50 is greater than 200 µM and the IC50 is greater than 200 µM.
In the case of `C=C(C(=O)O)C1CC[C@@]2(C)CC(O)CC(=C)C2C1` (stereo not given in full), the EC50 is greater than 200 µM and the IC50 is greater than 200 µM.
As for `Cc1ccc2cc(N)c3ccc(C)nc3c2n1.Cc1ccc2cc(N)c3ccc(C)nc3c2n1.O=C1OC(C(O)C[O-])C(O)=C1O.[Cu+]`, the EC50 is greater than 12.6 µM and the IC50 is 0.55 µM.
`CC1(C)C(=O)/C=C\C(=O)C(C)(C)C2=CC=C(O2)C(C)(C)C(=O)C(Br)C(Br)C(=O)C(C)(C)C2=CC=C1O2` (stereo not given): the result was inactive.
On to `O=C(CCc1ccc(O)cc1)NCCCNC(=O)CCc1ccc(O)cc1`, for which the EC50 is greater than 200 µM and the IC50 was greater than 200 µM.
As to `CCCN(CCCN)/[N+]([O-])=N\O`, the EC50 was greater than 8910 µM and the IC50 came to 1580 µM.
On to `CCCCCCCCCCCc1noc2c1C(=O)C(O)CC2` (stereo not given), for which the outcome was inactive.
For the molecule `CC1=NS(=O)(=O)NC(C)(C)C1`, the EC50 is greater than 200 µM and the IC50 is greater than 200 µM.
As to `CC(CCc1nc2ccccc2[nH]1)C1CCC2C3CC[C@@H]4C[C@H](O)CC[C@]4(C)C3C[C@H](O)[C@]12C` (stereo not given in full), the EC50 is greater than 50.1 µM and the IC50 is 4.07 µM.
Taken in the same sequence, the figures for `CCN(CC)CCNC(=O)c1ccccc1NC(=O)C(=O)Nc1ccccc1C(=O)NCCN(CC)CC` were greater than 6.92 µM and greater than 6.92 µM.
With `COc1ccc(C[C@H]2COC(=O)[C@@H]2Cc2cc(OC)c(OC)c(OC)c2)cc1OC`, the EC50 was greater than 200 µM and the IC50 was 115 µM.
The matching figures for `CC(=O)Oc1ccc2c(-c3ccccc3)c(Oc3ccc(Cl)cc3)c(=O)oc2c1`: greater than 200 µM and 15.8 µM.
Turning to `O=C1Nc2ccccc2Cn2c1cc1oc(-c3ccccc3)cc12`, the EC50 was greater than 200 µM and the 50% inhibitory concentration (IC50) was 191 µM.
As for `Cc1cn([C@H]2C[C@H](N=[N+]=[N-])[C@@H](COC(=O)CCC(=O)OC3CN(Cc4ccccc4)C(=O)N(Cc4ccccc4)C3)O2)c(=O)[nH]c1=O`, the EC50 is 0.955 µM and the IC50 worked out at 89.1 µM.
Consider `c1ccc2c(CCNC3=NCCO3)cccc2c1`, for which the outcome was inactive.
Turning to `COC(=O)CCC(=O)c1ccc2c(c1)CC1(C2)Cc2ccc(C(=O)CCC(=O)OC)cc2C1`, the EC50 is greater than 200 µM and the IC50 was 42.7 µM.
For the molecule `CN(C)c1ccc2nc3c(cc(Nc4cccc5cccc(Nc6cc7ccccc7c7nc8ccc(N(C)C)cc8[o+]c67)c45)c4ccccc43)[o+]c2c1`, the EC50 was greater than 100 µM and the IC50 came to 15.1 µM.
As to `CC1=CC(=O)C(C)(C2=NC(C)(C)CO2)c2ccccc21` (stereo not given), the EC50 is 51.3 µM and the IC50 amounted to 575 µM.
In the case of `Nc1ncnc2c1nnn2C1CCC(CP(=O)(O)O)C1` (stereo not given), the EC50 was greater than 200 µM and the IC50 is greater than 200 µM.
Regarding `CCc1cccc(C)c1NC(=O)CCc1nnc(SC)o1`, the EC50 was greater than 162 µM and the IC50 is greater than 162 µM.
Consider `Nc1ccc([N+](=O)[O-])c(S(=O)(=O)O)c1`, for which the EC50 was greater than 1150 µM and the IC50 is greater than 1150 µM.
Regarding `Nn1nnc2ccccc21`, the EC50 is greater than 200 µM and the IC50 was greater than 200 µM.
Take `Nc1cc2ncnn2c(SCC(=O)N/N=C/C(Br)=C\c2ccccc2)n1`: the EC50 is greater than 200 µM and the IC50 is 7.94 µM.
For the molecule `Clc1ccc2nc(-c3ccc(Cl)c(Cl)c3)cc(-c3ccccc3)c2c1`, the EC50 is greater than 200 µM and the IC50 was greater than 200 µM.
For the molecule `CN1C2Cc3cc4c(cc3[C@@]23Cc2ccc5c(c2[C@@H]1O3)OCO5)OCO4` (stereo not given in full), the EC50 is greater than 200 µM and the IC50 is 120 µM.
Take `COc1cc(O)c2c(c1)C(=O)C1=C(C2=O)C(O)C[C@@](C)(O)C1` (stereo not given in full): the result was inactive.
As for `COC1=CCC=C(C[C@@H]2NCCc3cc(OC)c(OC)cc32)C1`, the EC50 is greater than 200 µM and the IC50 is greater than 200 µM.
With `O=C(N/N=C1\CCc2ccccc21)N/N=C1\CCc2ccccc21`, the EC50 was greater than 200 µM and the IC50 is greater than 200 µM.
For the molecule `COc1ccc2nc(NC(=O)C(=O)C(C(=O)c3ccccc3-c3ccccc3)C3OC(=O)c4ccccc43)sc2c1` (stereo not given), the EC50 is greater than 45.7 µM and the IC50 came out at 25.1 µM.
For `CC(C)(C)NC1C2CCC(C)(C1O)C2(C)C` (stereo not given), the EC50 is greater than 200 µM and the half-maximal inhibitory concentration (IC50) was greater than 200 µM.
For the molecule `CCN(CC)CCNc1ccc([N+](=O)[O-])c2nc3ccccc3c(N)c12`, the EC50 was greater than 100 µM and the IC50 amounted to 0.575 µM.
Taken in the same sequence, the figures for `Cc1cn(C2CC(N=[N+]=[N-])C(COC(=O)CCCCCCCCCCCI)O2)c(=O)[nH]c1=O` (stereo not given) were 0.049 µM and 102 µM.
The matching figures for `CN(C)CCNC(=O)c1ccc(NC(=O)c2nc([N+](=O)[O-])cn2C)cc1`: greater than 200 µM and 182 µM.
As to `COc1ccc(OC(=O)N2C/C(=C\c3ccccc3)C(=O)/C(=C/c3ccccc3)C2)cc1`, the outcome was inactive.
For the molecule `COc1cc2c(cc1O)CN1CCC23C=C[C@@H](O)CC13` (stereo not given in full), the EC50 is greater than 912 µM and the IC50 worked out at 38.9 µM.
`O=c1[nH]n(-c2ccccc2)c(=O)cc1Cl`: the EC50 is greater than 85.1 µM and the IC50 is greater than 85.1 µM.
Consider `O=C1N=C(C=c2ccc(=Cc3[nH]c(=O)[nH]c3O)cc2)C(=O)N1`, for which the EC50 was 132 µM and the IC50 is greater than 200 µM.
As for `CC1(C)OC[C@@H](O)[C@H](C#N)CO1`, the EC50 was greater than 200 µM and the IC50 is greater than 200 µM.
As for `CCCCCCCCCCCCCCCCNc1ccn(C2OC(COP(=O)(O)OC3CC(n4cc(C)c(=O)[nH]c4=O)OC3CO)C(O)C2O)c(=O)n1` (stereo not given), the EC50 was greater than 200 µM and the 50% inhibitory concentration (IC50) worked out at 19.1 µM.
With `CN(C)C(=O)Nc1c([N+](=O)[O-])cc(C(F)(F)F)cc1[N+](=O)[O-]`, the outcome was inactive.
Regarding `Cc1csc2c(=O)n(C3OC(CO)C(O)C3O)c(=O)[nH]c12` (stereo not given), the EC50 is greater than 200 µM and the IC50 was greater than 200 µM.
As for `Cc1ccc(N2C=Nn3c(nc4sc5c(c4c3=O)CCCC5)C2)cc1`, the EC50 was 25.1 µM and the IC50 was 42.7 µM.
Consider `CCCCC(CC)CN=Cc1c(O)c(O)c(C(C)C)c2cc(C)c(-c3c(C)cc4c(C(C)C)c(O)c(O)c(C=NCC(CC)CCCC)c4c3O)c(O)c12` (stereo not given), for which the EC50 is greater than 200 µM and the IC50 is 145 µM.
For `COC(=O)C(Cc1ccc(N(C)C)cc1)(NC(=O)c1ccccc1)P(=O)(OC)OC` (stereo not given), the EC50 is greater than 417 µM and the IC50 amounted to 398 µM.
Taken in the same sequence, the figures for `CCOC(=O)CC(=Nc1cc(C)on1)N(CC)CC` were greater than 676 µM and greater than 676 µM.
For `CC(=O)C(=C(I)I)c1ccccc1`, the result was inactive.
The same measure, in the same setting: under `COc1ccc2c(c1OCC(=O)O)C(=O)C(CCC(=O)O)CC2` (stereo not given) stands “inactive”.
In the case of `CCCCN(CCCC)C(=O)/C(CC(=O)c1cccc2ccccc12)=N\NC(=O)c1cc2ccccc2cc1O`, the EC50 is greater than 34.7 µM and the IC50 was found to be 16.2 µM.
For the molecule `CCCC(C(=O)OC)C(=O)C(C)c1nc2n(c1O)C(=N)N=N2` (stereo not given), the EC50 was greater than 200 µM and the IC50 was greater than 200 µM.
With `CCOC(=O)C[P+](c1ccc(OC)cc1)(c1ccc(OC)cc1)c1ccc(OC)cc1`, the EC50 is greater than 200 µM and the IC50 is 33.1 µM.
Taken in the same sequence, the figures for `N#CC=Cc1ccc([N+](=O)[O-])s1` (mixture of isomers) were greater than 2 µM and 0.166 µM.
For `O=C(N/N=C/c1cccc2ccccc12)c1cccnc1`, the EC50 is greater than 200 µM and the IC50 worked out at 112 µM.
